Laboratory results published in patent US20200277278A1, “Deuterium Atom-Substituted Indole Formamide Derivative, Preparation Method Therefor, and Medical Applications Thereof” (Jiangsu Hengrui Medicine Co., Ltd., priority 2017, published 2020).
Like-named read-outs stand apart in the source and are kept apart here.

What was measured:
IL-17A = IL-17A enzyme-linked immune quantitative assay in cytostim-activated human PBMC; type: cell-based; conditions: 72 h, 3 days
Method: Frozen human peripheral blood mononuclear cells (PBMC) were rapidly resuscitated in pre-warmed lymphocyte culture medium, and centrifuged at 1000 rpm for 10 min. The cell culture supernatant was removed. The cells were gently suspended in TexMACS medium and counted. The T cell activation reagent cytostim (10 μl/ml) was added in proportion to the cell suspension. Then, the cells were seeded in a 96-well cell culture plate at a density of 1×10^5 peripheral blood mononuclear cells/well. The test compounds were diluted in gradient with TexMACS medium, and added respectively to the test wells, with 2-3 parallel wells per group. A negative control well containing only cells without cytostim was provided to obtain the background reading. The cell culture plate was placed in a incubator at 5% carbon dioxide, 37° C. to incubate for 3 days. The cell culture supernatant was collected 3 days after drug treatment, and centrifuged to remove the suspension. Then, IL-17A in the supernatant was quantified with IL-17A enzyme-linked immunosorbent kit. EC50 values of the test compounds were calculated with GraphPad Prism 6.0.

[1] = Pharmacokinetics assay in mice; type: in vivo; conditions: female, mouse, po, C57 mice, intragastric, 2 mg/kg; for Vd/F: read-out: Apparent distribution volume Vz/F; for AUC: read-out: Area under curve AUC; for CL/F: read-out: Clearance CLz/F; for half-life: read-out: Half-life T½ (converted); for Cmax: read-out: Plasma concentration Cmax; for MRT: read-out: Residence time MRT
Method: Mice were used as test animals. […] The pharmacokinetic behavior of the compounds of the present invention was studied and evaluated in mice. A group of eighteen C57 mice (female, equally divided into two groups) were purchased from Shanghai Jiesijie Laboratory Animal Co., LTD, with Certificate No.: SCXK (Shanghai) 2013-0006. A certain amount of the test compound was weighed, and added with 5% by volume of DMSO, 5% by volume of tween 80 and 90% by volume of normal saline to prepare a 0.1 mg/mL colorless, clear and transparent solution. […] The samples were stored in heparinized tubes, and centrifuged for 10 minutes at 3500 rpm to separate the blood plasma. The plasma samples were stored at −20° C. The content of the test compound in the plasma of mice after intragastrical administration of the test compound at different concentrations was determined: 25 μL of mouse plasma at each time after administration was taken, added with 80 μL of the internal standard solution of camptothecin (100 ng/mL) and 200 μL of acetonitrile, vortex-mixed for 5 minutes, and centrifuged for 10 minutes (3600 rpm). 1 μL of the supernatant was taken from the plasma samples for LC/MS/MS analysis.

MC38 colorectal tumor = assay: Efficacy in isotype MC38 colorectal tumor mice model; type: in vivo, C57BL/6 mice
Method: Female C57BL/6 mice (20-25 gram, 7-9 weeks old) were used in the experiment. In vivo antitumor activity of the compound of Example 1 administered alone or the compound of Example 1 administered in combination with anti-mouse PD-1 antibody was evaluated by detecting the growth of isotype MC38 colorectal tumor in inbred C57BL/6 mice. 500,000 (5×10^5) MC38 cells were implanted subcutaneously in the right abdomen of each mouse. When the tumor grew to 40-80 mm^3 (on Day 6), the mice were grouped randomly into the above four groups. In Group III and IV, the mice were administered the compound of Example 1 (0.5 mg/kg) once a day for 20 consecutive days. During the treatment experiment in Group II and IV, the anti-mouse PD-1 (CD279) antibody (BioXcell) (5 mg/kg) was intraperitoneally injected (i.p.) to the mice bearing MC38 tumor on Day 6, 9, 12 and 15, respectively. […]
The tumor volume was measured with a caliper in three dimensions, and then calculated according to the following formula: tumor volume (mm^3)=1×w×h×0.5236, wherein 1 represents the length of the tumor, w represents the width of the tumor, and h represents the height of the tumor, in millimeters. […]

RORγ LBD = molecular target: T1, RORγ LBD (Homo sapiens, UniProt P51449); assay: LanthaScreen TR-FRET RORγ co-activation system, effect on in vitro activity of RORγ; type: biochemical
T1 construct: RORγ LBD (AB Vector); purchased AB Vector
T1 sequence (P51449 269-508 limits assumed): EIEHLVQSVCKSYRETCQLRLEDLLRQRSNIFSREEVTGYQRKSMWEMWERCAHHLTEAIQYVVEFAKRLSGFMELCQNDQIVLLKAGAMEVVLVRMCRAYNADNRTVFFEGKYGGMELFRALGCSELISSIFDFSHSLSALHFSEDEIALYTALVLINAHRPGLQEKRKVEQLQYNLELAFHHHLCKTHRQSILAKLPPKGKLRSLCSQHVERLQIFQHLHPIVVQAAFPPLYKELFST
Method: A complete buffer D (complete TR-FRET Coregulator) (Life Technologies) was formulated first, containing a final concentration of 5 mM DTT. The final concentration of DMSO was 2%. The test compound was serially diluted to 2× final concentration in the complete buffer D containing 2% of DMSO, and the maximum dose was 60 μm. The test compound was added to the test wells of a 384-well plate (PerkinElmer) in 10 μl/well. Two parallel control wells were set up for each test compound at the same concentration. 4×RORγ LBD (AB Vector) was formulated. RORγ LBD was diluted with the complete buffer D to a concentration of 1 ng/μL, and added to the test wells of the 384-well plate in 5 µl/well. The negative control well was 5 μL of complete buffer D without RORγ LBD. A mixed solution comprising 0.6 μM of fluorescein-D22 (4×) and 8 nM of terbium (Tb)-labeled anti-GST antibody (4×) (Life Technologies) was formulated with the complete buffer D, and 5 μL of the mixed solution was added to the 384-well plate. The total reaction system was 20 μL. The 384-well plate was gently shaken on a shaker, and incubated at room temperature in the dark for 2-4 hours.
Fluorescence readings were determined with Tecan Infinite M1000. The logarithmic curve of the ratio of the emission wavelength of 520 nm/495 nm to the concentration of the compound was plotted by GraphPad Prism 6.0 software. EC50 value of the test compound was calculated.

| Compound | EC50 (IL-17A) [µM] | EC50 (RORγ LBD) [µM] | Emax (RORγ LBD) [%] | Emax (IL-17A) [%] | further results |
| --- | --- | --- | --- | --- | --- |
| [2H]C([2H])(F)Cn1c(Cc2ccc(Cl)cc2C(F)(F)F)cc2cc(C(=O)N[C@@H](CO)c3ccc(S(=O)(=O)CC)cc3)ccc21 (single isomer, unassigned) [Example 1] | 0.022 | – | – | 88 | Vd/F ([1]; plasma): 0.648 L/kg; AUC ([1]; plasma): 40.4 µg·h/mL; CL/F ([1]; plasma): 0.0492 L/h/kg; half-life ([1]; plasma): 9.08 h; Cmax ([1]; plasma): 3.71 µg/mL; MRT ([1]; plasma): 12 h; Tumor growth inhibition rate TGI (MC38 colorectal tumor; 0.5 mg/kg oral in combination with anti-mouse PD-1 monoclonal antibody 5 mg/kg i.p.): 65.5%; Tumor growth inhibition rate TGI (MC38 colorectal tumor; administered alone, 0.5 mg/kg oral, once a day for 20 days): 22.5% |
| [2H]C([2H])([2H])C([2H])([2H])S(=O)(=O)c1ccc([C@H](CO)NC(=O)c2ccc3c(c2)cc(Cc2ccc(Cl)cc2C(F)(F)F)n3CCF)cc1 (single isomer, unassigned) [Example 6] | 0.037 | – | – | 100 | Vd/F ([1]; in vivo): 0.575 L/kg; AUC ([1]; in vivo): 31.6 µg·h/mL; CL/F ([1]; in vivo): 0.0636 L/h/kg; half-life ([1]; in vivo): 6.29 h; Cmax ([1]; in vivo): 2.73 µg/mL; MRT ([1]; in vivo): 9.13 h |
| [2H]C([2H])(c1cc2cc(C(=O)N[C@@H](CO)c3ccc(S(=O)(=O)CC)cc3)ccc2n1C1CC1)n1nccc1C(F)(F)F [Example 2, 1-Cyclopropyl-2-[dideutero-[5-(trifluoromethyl)pyrazol-1-yl]methyl]-N-[(1R)-1-(4-ethylsulfonylphenyl)-2-hydroxy-ethyl]indole-5-carboxamide] | – | 0.016 | 89 | – | – |
| [2H]C([2H])(C)n1c(Cc2ccc(Cl)cc2C(F)(F)F)cc2cc(C(=O)N[C@@H](CO)c3ccc(S(=O)(=O)CC)cc3)ccc21 [Example 11, 2-[[4-Chloro-2-(trifluoromethyl)phenyl]methyl]-1-(1,1-dideuteroethyl)-N-[(1R)-1-(4-ethylsulfonylphenyl)-2-hydroxyethyl]indole-5-carboxamide] | – | 0.021 | 84 | – | – |

Continued, in another order:

| EC50 (IL-17A) [µM] | EC50 (RORγ LBD) [µM] | Emax (RORγ LBD) [%] | Compound | Emax (IL-17A) [%] | further results |
| --- | --- | --- | --- | --- | --- |
| 0.103 | 0.017 | 98 | [2H]C([2H])(NC(=O)c1ccc2c(c1)cc(Cc1ccc(Cl)cc1C(F)(F)F)n2CCF)c1ccc(S(=O)(=O)CC)cc1 [Example 3, 2-[[4-Chloro-2-(trifluoromethyl)phenyl]methyl]-N-[dideutero-(4-ethylsulfonylphenyl)methyl]-1-(2-fluoroethyl)indole-5-carboxamide] | 102 | – |
| 0.02 | 0.005 | 98 | [2H]C([2H])(NC(=O)c1ccc2c(c1)cc(Cc1ccccc1C(F)(F)F)n2C1CC1)c1ccc(S(=O)(=O)CC)cc1 [Example 4, 1-Cyclopropyl-N-[dideutero-(4-ethylsulfonylphenyl)methyl]-2-[[2-(trifluoromethyl)phenyl]methyl]indole-5-carboxamide] | 79 | – |
| 0.032 | 0.009 | 73 | [2H]C([2H])(O)Cn1c(Cc2ccc(Cl)cc2C(F)(F)F)cc2cc(C(=O)N[C@@H](CO)c3ccc(S(=O)(=O)CC)cc3)ccc21 [Example 5, 2-[[4-Chloro-2-(trifluoromethyl)phenyl]methyl]-1-(2,2-dideutero-2-hydroxy-ethyl)-N-[(1R)-1-(4-ethylsulfonylphenyl)-2-hydroxy-ethyl]indole-5-carboxamide] | 82 | – |
| – | 0.034 | 85 | [2H]C([2H])([2H])OC[C@H](NC(=O)c1ccc2c(c1)cc(Cc1ccc(Cl)cc1C(F)(F)F)n2CCF)c1ccc(S(=O)(=O)CC)cc1 [Example 8, 2-[[4-Chloro-2-(trifluoromethyl)phenyl]methyl]-N-[(1R)-1-(4-ethylsulfonylphenyl)-2-(trideuteromethoxy)ethyl]-1-(2-fluoroethyl)indole-5-carboxamide] | – | – |
| 0.022 | 0.009 | 77 | [2H]C([2H])(F)Cn1c(Cc2ccc(Cl)cc2C(F)(F)F)cc2cc(C(=O)N[C@@H](CO)c3ccc(S(=O)(=O)CC)cn3)ccc21 [Example 13, 2-[[4-Chloro-2-(trifluoromethyl)phenyl]methyl]-1-(2,2-dideutero-2-fluoro-ethyl)-N-[(1R)-1-(5-ethylsulfonyl-2-pyridinyl)-2-hydroxy-ethyl]indole-5-carboxamide] | 88 | – |
